Results on one molecule are retold here after patent publication US20220000873A1, “S3QELS TO PROTECT AGAINST INTESTINAL PERMEABILITY” (Buck Institute for Research on Aging, priority 2018, published 2022).

Assay [1] deals with C57BL/6 mice fed a high-fat diet. Kind of assay: Mouse intestinal permeability (plasma FITC-dextran after gavage and fecal albumin). The class given is in vivo. To be noted: high-fat diet (60% kcal) with 200 mg/kg S3QEL in diet, 16 weeks; plasma FITC-dextran and fecal albumin (FIG. 5A, B). As for the experimental part:
(§1) Six-week-old C57BL/6 mice were purchased from Jackson Laboratories and acclimated in-house for two weeks before the study. At 8 weeks of age, mice were randomized into groups based on weight and fed either a control semi-purified diet D12450J containing 10% fat kcal, a 60% fat kcal diet D12492, or a custom-mixed 60% fat kcal diet D12492 containing 200 mg/kg of S3QELs. Diets were purchased from Research Diets and were gamma-irradiated. Mice were maintained on the experimental diets for 16 weeks in total. Food consumption was measured daily in a semiquantitative fashion. The food was weighed before placing in the cage, and then weighed again 24 h later. The total food weight difference within 24 h was divided by the number of mice in the cage to determine average food consumption per mouse. All experiments involving the use of mice were reviewed and approved by the Institutional Animal Care and Use Committee (IACUC) of the Buck Institute.
Mice were fasted for 4 h prior to assay. […] Blood plasma samples were diluted appropriately using 1×PBS and FITC-dextran fluorescence was measured at Ex 485 nm/Em 535 nm. FITC-dextran amount was determined using standard curves generated from a known amount of FITC-dextran titrated in plasma from control or high fat-fed mice. […]

For assay [2] the test system is unchanged. Kind of assay: Mouse intestinal gene expression (qPCR, colon and distal small intestine). Type of assay: in vivo. To be noted: high-fat diet with 200 mg/kg S3QEL, 16 weeks. As for the experimental part: as §1, with “The total food weight difference within 24 h was divided by the number of mice in the cage to determine average food consumption per mouse. All experiments involving the use of mice were reviewed and approved by the Institutional Animal Care and Use Committee (IACUC) of the Buck Institute.” left out
RNA from the fly intestine lysates, and the aqueous phase from the mouse intestinal Trizol lysates, were further processed to isolate RNA using a Quick-RNA™ MiniPrep Kit (Zymo Research) according to the manufacturer's guidelines. […] The quantity and quality of fly and mouse RNA samples were determined using a NanoDrop 1000 spectrophotometer (Thermo Scientific). 1 μg of total RNA from either fly or mouse intestine was used in a total reaction volume of […] containing 4 μL of iScript Reverse Transcription Supermix (Bio-Rad) to synthesize cDNA according to the manufacturer's guidelines. cDNA was stored at −20° C. before carrying out quantitative RTPCR. […]
In general terms: Real-time PCR tracks product formation cycle by cycle.

Structures are written as SMILES.

In the case of `Cc1ccc(-n2ncc3c(N(Cc4ccccc4)C(C)C)ncnc32)cc1Cl` [S3QEL2.2], in assay [1], the “increases in intestinal permeability in mice” value was “strongly protected”. Moreover, the “decrease in tight-junction gene expression” value in assay [2] (both colon and distal small intestine (FIG. 5C, FIG. 11)) was “protected against the decrease”. The “decrease in mucin gene expression” value in assay [2] (both colon and distal small intestine (FIG. 5D, FIG. 11)) was “protected against the decrease”.
